The source of these data is patent publication US10738056B2 (Aduro BioTech, Inc., priority 2017, dated 2020).

Each structure is given as a SMILES string. Read-outs that look alike come from different tables or passages of the source.

Series [1] in a line: Solubility of free base (footnote to Table 15). The class given is physicochemical. The note with it: tested as the HCl salt.
Series [2] has as its target Human cGAS amino acids 155-522 (Homo sapiens (Human), UniProt Q8N884). Briefly: cGAS biochemical activity assay (ATP remaining, Kinase-Glo Max luminescence). The note with it: human cGAS 155-522, ATP remaining (Kinase-Glo Max); read-out: cGAS IC50.
Series [3] concerns MCP-1/CCL2 secretion by Trex1-KO BMM. As to the kind of experiment: Inhibition of MCP-1/CCL2 secretion by Trex1-KO bone marrow-derived macrophages. More on the design: key to BMM IC50 M (MCP-1): A: an IC50 value less than 5 μM; B: an IC50 value between 5 and 20 μM; where an IC50 value could not be calculated from the data. The class given is cell-based, mice. The note with it: for IC50: Mus musculus, Macrophage. The essentials:
(§1)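 Bone marrow macrophages from Trex1-KO mice, differentiated with M-CSF, 1×10^5 cells/well, treated overnight at 37 °C with a compound dilution series in FBS-free medium. Secreted cytokine measured by cytometric bead array from a standard curve, normalized to DMSO; viability by CellTiter-Glo.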

The subject of series [4] is Trex1-KO BMM. As to the kind of experiment: Viability of Trex1-KO BMM (Cell Titer Glo 2.0). The class given is cell-based, mice. The note with it: Trex1-KO BMM at the cytokine IC50 concentrations. As for the experimental part:
The inhibition of secreted cytokine was measured in bone marrow-derived macrophages (BMMs) from diseased mice to evaluate the potency of compounds of the invention as described herein. […] To derive bone marrow macrophages, marrow extracted from the femurs and tibias were harvested from Trex1-KO mice was cultured in growth media supplemented with macrophage colony-stimulating factor (M-CSF). Differentiated BMM were harvested and frozen for subsequent experimentation. For treatment with compound C1089 (see Example 13), a frozen stock of Trex1-KO BMM was thawed and 1×10^5 cells were plated in 96 well format. BMMs were treated with a dilution series of C1089 and incubated overnight at 37° C. 5% CO2, at which point cellular supernatants were harvested and stored at −80° C. for subsequent analysis. The media used for this dilution series was without FBS. Remaining cells were evaluated for viability using Cell Titer Glo 2.0 kit according to the manufacturer instructions. BMM supernatants were evaluated for the secreted cytokine […] (RANTES/CCL5) or for secreted cytokine monocyte chemoattractant protein 1 (MCP-1/CCL2) using cytometric bead array mouse Flex Set kits (BD Biosciences). Cytokine concentration was calculated from a standard curve and normalized to vehicle (DMSO) treated cells.

Series [5] deals with RANTES/CCL5 secretion by Trex1-KO BMM. As to the kind of experiment: Inhibition of RANTES/CCL5 secretion by Trex1-KO bone marrow-derived macrophages. The format is cell-based, mice. Also noted: key to BMM IC50 R (RANTES): A: an IC50 value less than 5 μM; B: an IC50 value between 5 and 20 μM; where an IC50 value could not be calculated from the data. The note with it: for BMM IC50 R (RANTES): RANTES secretion. The gist of the method:
as §1

The subject of series [6] is cGAS/STING pathway in THP1 cells. Briefly: THP1 cell-based cGAS/STING pathway activity assay (IRF-3-linked luciferase reporter). The note with it: Homo sapiens, THP-1. The essentials:
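THP1 cells carrying an IRF-3-driven luciferase reporter were read across a range of compound concentrations, and IC50 values were derived from these concentration responses; the assay upper limit was 100 μM.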

Setting [7] is: MCP-1 secretion, read-out: BMM IC50 M (MCP-1).

Sequence of Human cGAS amino acids 155-522 (Q8N884 157-522): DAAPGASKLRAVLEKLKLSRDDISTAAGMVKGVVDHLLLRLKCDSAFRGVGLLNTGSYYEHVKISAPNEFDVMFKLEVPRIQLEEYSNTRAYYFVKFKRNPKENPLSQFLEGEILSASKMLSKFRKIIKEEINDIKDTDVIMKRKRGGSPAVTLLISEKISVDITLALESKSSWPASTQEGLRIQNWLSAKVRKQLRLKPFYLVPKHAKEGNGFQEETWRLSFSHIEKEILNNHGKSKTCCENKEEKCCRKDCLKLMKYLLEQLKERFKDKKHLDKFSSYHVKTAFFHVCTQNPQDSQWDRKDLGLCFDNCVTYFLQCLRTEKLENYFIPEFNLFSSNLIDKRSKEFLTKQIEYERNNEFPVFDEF

In the case of `COc1cc(CN)cc2oc(-c3c(C)[nH]c4c(-c5ccccc5)c(C(F)(F)F)nn4c3=O)nc12` [Compound C1128, 6-(6-(aminomethyl)-4-methoxybenzo[d]oxazol-2-yl)-5-methyl-3-phenyl-2-(trifluoromethyl)pyrazolo[1,5-a]pyrimidin-7(4H)-one], the “solubility of the free base” value in series [1] was “insoluble”. Besides, in series [2], the IC50 was above 250 µM.

Turning to `COc1cccc2oc(-c3c(C#N)[nH]c4c(-c5ccccc5)c(C(F)(F)F)nn4c3=O)nc12` [Compound C1089, 6-(4-methoxybenzo[d]oxazol-2-yl)-7-oxo-3-phenyl-2-(trifluoromethyl)-4,7-dihydropyrazolo[1,5-a]pyrimidine-5-carbonitrile], the IC50 in series [3] (overnight, media without FBS, normalized to DMSO, read-out: MCP-1/CCL2 IC50) is 6.97 µM; in series [2], below 20 µM; in series [5] (Mus musculus, Macrophage, overnight, media without FBS, normalized to DMSO, read-out: RANTES/CCL5 IC50), 1.25 µM; in series [6], below 20 µM. The molecule also gave a BMM viability in series [4] of 100%.

Take `Cc1[nH]c2c(-c3ccccc3)c(C(F)(F)F)nn2c(=O)c1C(=O)Nc1cccc(OC2CCCC2)c1` [Compound A1082, N-(3-(cyclopentyloxy)phenyl)-5-methyl-7-oxo-3-phenyl-2-(trifluoromethyl)-4,7-dihydropyrazolo[1,5-a]pyrimidine-6-carboxamide]: the “BMM IC50 M (MCP-1)” value in series [3] (MCP-1 secretion) is “C”. The IC50 in series [2] and in series [6] was below 20 µM each time. For the same molecule, the “BMM IC50 R (RANTES)” value in series [5] was “C”.

Take `COc1cc(Br)cc(NC(=O)c2c(C)[nH]c3c(-c4ccccc4)c(C(F)(F)F)nn3c2=O)c1` [Compound A1129, N-(3-bromo-5-methoxyphenyl)-5-methyl-7-oxo-3-phenyl-2-(trifluoromethyl)-4,7-dihydropyrazolo[1,5-a]pyrimidine-6-carboxamide]: the IC50 in series [3] (setting [7]) was 5 to 20 µM; in series [2], below 20 µM; in series [6], 20 to 100 µM. In addition, in series [5], the “BMM IC50 R (RANTES)” value was “C”.

With `COc1cccc2oc(-c3c(C)[nH]c4c(-c5ccccc5F)c(C(F)(F)F)nn4c3=O)nc12` [Compound C1091, 3-(2-fluorophenyl)-6-(4-methoxybenzo[d]oxazol-2-yl)-5-methyl-2-(trifluoromethyl)pyrazolo[1,5-a]pyrimidin-7(4H)-one], in series [3] (MCP-1 secretion), the “BMM IC50 M (MCP-1)” value is given as “C”. Besides, the IC50 in series [2] and in series [6] was below 20 µM throughout. Further, the “BMM IC50 R (RANTES)” value in series [5] is listed as “C”.

`COc1ccc(C(N)=O)c2oc(-c3c(C)[nH]c4c(-c5ccccc5)c(C(F)(F)F)nn4c3=O)nc12` [Compound C1113, 4-methoxy-2-(5-methyl-7-oxo-3-phenyl-2-(trifluoromethyl)-4,7-dihydropyrazolo[1,5-a]pyrimidin-6-yl)benzo[d]oxazole-7-carboxamide]: the IC50 in series [3] (setting [7]) is below 5 µM; in series [2], below 20 µM; in series [6] it was below 20 µM. For the same molecule, the “BMM IC50 R (RANTES)” value in series [5] is reported as “C”.
